Experimental data: ChEMBL document CHEMBL1201862, “PubChem BioAssay data set” (2004)
The source made the active and inactive calls.

How the values were obtained:
[1] = target: T1, Long-chain-fatty-acid--AMP ligase FadD28 (Mycobacterium tuberculosis, UniProt P9WQ59); experiment: Fluorescence polarization aasay to screen for inhibitors that compete for the binding of FadD28 to a bisubstrate Measured in Biochemical System Using Plate Reader - 2147-01_Inhibitor_Dose_CherryPick_Activity.; type: functional, Mycobacterium tuberculosis H37Rv
T1 sequence (P9WQ59 whole entry): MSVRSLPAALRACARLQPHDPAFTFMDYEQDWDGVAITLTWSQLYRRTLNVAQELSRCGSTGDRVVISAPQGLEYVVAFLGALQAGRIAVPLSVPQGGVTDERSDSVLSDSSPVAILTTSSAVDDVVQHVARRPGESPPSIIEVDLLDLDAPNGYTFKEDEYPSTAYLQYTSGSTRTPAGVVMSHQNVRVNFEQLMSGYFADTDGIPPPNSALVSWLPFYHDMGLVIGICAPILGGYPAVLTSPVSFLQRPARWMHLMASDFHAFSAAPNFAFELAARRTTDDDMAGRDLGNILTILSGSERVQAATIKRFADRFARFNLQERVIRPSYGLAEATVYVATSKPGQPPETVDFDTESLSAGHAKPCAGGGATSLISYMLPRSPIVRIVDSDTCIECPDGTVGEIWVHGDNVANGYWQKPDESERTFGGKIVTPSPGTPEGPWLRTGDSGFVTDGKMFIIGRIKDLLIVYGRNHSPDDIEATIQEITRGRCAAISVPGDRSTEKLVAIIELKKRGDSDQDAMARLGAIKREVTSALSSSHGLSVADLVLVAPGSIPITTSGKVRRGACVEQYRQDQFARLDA

[2] = target: T2, Alkaline phosphatase, tissue-nonspecific isozyme (Homo sapiens, UniProt P05186); experiment: TNAP enzyme activators, dose response, selectivity assay for human IAP activator project, biochemical, TNAP isozyme, human IAP uHTS hits (AID 488886); type: functional;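 note: potency of compounds raising TNAP activity as a selectivity check on IAP activators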
T2 sequence (P05186 whole entry): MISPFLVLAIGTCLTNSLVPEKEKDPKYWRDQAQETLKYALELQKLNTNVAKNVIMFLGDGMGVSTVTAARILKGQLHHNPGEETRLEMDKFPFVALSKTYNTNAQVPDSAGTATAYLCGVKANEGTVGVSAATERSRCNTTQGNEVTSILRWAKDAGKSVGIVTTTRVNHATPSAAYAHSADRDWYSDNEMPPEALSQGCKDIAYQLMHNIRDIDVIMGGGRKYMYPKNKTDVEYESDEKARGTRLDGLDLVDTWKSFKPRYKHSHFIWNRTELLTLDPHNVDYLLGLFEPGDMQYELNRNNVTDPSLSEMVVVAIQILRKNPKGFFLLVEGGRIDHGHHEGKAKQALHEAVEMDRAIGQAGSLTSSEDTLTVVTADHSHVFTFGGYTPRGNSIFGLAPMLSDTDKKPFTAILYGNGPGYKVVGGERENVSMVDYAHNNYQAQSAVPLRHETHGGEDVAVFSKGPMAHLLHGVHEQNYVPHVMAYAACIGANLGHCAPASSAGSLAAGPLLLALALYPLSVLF

[3] = target: T3, Intestinal-type alkaline phosphatase (Homo sapiens, UniProt P09923); experiment: human IAP activators, dose response, biochemical, luminescent, uHTS hits, set 2 (AID 488817); type: functional;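 note: potency of activators that raise enzyme activity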
T3 sequence (P09923 whole entry): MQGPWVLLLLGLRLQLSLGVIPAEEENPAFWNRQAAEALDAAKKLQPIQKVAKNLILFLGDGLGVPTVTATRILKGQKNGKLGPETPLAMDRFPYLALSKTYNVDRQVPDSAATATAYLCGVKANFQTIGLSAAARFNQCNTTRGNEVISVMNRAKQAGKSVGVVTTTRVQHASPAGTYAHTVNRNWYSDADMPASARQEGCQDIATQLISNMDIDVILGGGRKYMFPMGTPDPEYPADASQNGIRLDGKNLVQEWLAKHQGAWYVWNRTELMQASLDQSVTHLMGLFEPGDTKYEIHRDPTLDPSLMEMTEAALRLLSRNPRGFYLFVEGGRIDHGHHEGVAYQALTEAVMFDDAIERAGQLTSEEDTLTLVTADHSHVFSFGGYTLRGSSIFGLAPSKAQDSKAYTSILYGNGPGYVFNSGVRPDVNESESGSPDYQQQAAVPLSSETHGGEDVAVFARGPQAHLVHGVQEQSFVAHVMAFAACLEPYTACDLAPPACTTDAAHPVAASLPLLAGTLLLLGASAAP

[4] = target: Intestinal-type alkaline phosphatase (Mus musculus, UniProt P24822); experiment: PubChem AID 488874; type: functional
Intestinal-type alkaline phosphatase (Mus musculus, UniProt P24822), sequence (P24822 whole entry): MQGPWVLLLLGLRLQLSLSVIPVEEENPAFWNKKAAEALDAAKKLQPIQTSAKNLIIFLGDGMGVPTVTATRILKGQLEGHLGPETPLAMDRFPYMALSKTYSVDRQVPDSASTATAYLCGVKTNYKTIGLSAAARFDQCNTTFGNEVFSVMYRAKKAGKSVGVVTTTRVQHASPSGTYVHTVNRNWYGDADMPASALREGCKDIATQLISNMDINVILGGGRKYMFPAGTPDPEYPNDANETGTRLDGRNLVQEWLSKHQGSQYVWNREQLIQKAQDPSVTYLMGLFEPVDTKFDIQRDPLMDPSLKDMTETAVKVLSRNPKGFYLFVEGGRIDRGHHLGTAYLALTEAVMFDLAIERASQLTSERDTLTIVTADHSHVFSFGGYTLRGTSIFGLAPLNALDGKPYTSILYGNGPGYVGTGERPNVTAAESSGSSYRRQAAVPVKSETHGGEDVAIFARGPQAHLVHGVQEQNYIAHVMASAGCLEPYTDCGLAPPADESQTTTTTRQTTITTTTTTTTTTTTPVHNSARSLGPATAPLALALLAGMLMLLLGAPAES

[5] = target: T3, Intestinal-type alkaline phosphatase; experiment: human intestinal alkaline phosphatase activators, dose response, biochemical, luminescence, uHTS hits (AID 463120); type: functional
[6] = cytotoxicity in HEK-293T cells, dose response, cytotoxicity control for BCR NF-kB inhibitor project, luminescence, B-cell screen hits (AID 489021); type: functional, cell-based;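 note: HEK-293T cells carrying an NF-kB luciferase reporter; cells exposed to compound for about 14 hours before viability readout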
[7] = target: Peroxisome proliferator-activated receptor gamma/Nuclear receptor coactivator 2 (Homo sapiens, UniProt P37231); experiment: (§1) TR-FRET dose response biochemical High Throughput Screening assay for agonists of the steroid receptor coactivator 2 (SRC-2) recruitment by the peroxisome proliferator-activated receptor gamma (PPAR gamma): non-selective agonists. [Related pubchem assays: 1297, 1032 ]; type: functional
[8] = target: Peroxisome proliferator-activated receptor gamma/Nuclear receptor coactivator 1 (Homo sapiens, UniProt P37231); experiment: as §1, with “1 (SRC-1)” for “2 (SRC-2)”, “assays (depositor defined):AID1300, AID1808, AID504735, AID631]” for “assays: 1297, 1032 ]”; type: protein assay
[9] = target: T4, Ubiquitin-conjugating enzyme E2 N (Homo sapiens, UniProt P61088); type: functional
T4 sequence (P61088 whole entry): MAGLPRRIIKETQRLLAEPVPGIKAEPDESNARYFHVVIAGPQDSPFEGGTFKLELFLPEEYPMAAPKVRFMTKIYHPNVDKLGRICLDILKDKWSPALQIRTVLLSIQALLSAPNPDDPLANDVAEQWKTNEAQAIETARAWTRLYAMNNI

[10] = target: Peroxisome proliferator-activated receptor gamma/Nuclear receptor coactivator 3 (Homo sapiens, UniProt P37231); experiment: as §1, with “3 (SRC-3)” for “2 (SRC-2)”, “1301 (Confirmation screen.), 1048 (Primary screen.)]” for “1297, 1032 ]”; type: functional
Peroxisome proliferator-activated receptor gamma/Nuclear receptor coactivator 3, sequence (P37231 whole entry): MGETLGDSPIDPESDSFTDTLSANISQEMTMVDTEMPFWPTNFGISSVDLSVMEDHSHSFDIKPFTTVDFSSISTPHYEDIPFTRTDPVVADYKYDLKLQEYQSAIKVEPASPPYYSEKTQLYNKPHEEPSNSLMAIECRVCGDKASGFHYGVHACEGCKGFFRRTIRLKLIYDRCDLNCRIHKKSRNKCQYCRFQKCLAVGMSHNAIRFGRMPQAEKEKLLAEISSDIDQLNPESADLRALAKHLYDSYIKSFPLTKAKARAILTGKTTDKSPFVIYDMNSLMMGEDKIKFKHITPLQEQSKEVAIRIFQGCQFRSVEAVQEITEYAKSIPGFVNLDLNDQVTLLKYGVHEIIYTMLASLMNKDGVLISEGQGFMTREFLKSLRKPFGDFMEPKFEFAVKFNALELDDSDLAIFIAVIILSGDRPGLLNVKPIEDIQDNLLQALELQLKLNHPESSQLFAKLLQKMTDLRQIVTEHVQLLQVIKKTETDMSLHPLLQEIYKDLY
Peroxisome proliferator-activated receptor gamma/Nuclear receptor coactivator 3, sequence (Q9Y6Q9 whole entry, further chain): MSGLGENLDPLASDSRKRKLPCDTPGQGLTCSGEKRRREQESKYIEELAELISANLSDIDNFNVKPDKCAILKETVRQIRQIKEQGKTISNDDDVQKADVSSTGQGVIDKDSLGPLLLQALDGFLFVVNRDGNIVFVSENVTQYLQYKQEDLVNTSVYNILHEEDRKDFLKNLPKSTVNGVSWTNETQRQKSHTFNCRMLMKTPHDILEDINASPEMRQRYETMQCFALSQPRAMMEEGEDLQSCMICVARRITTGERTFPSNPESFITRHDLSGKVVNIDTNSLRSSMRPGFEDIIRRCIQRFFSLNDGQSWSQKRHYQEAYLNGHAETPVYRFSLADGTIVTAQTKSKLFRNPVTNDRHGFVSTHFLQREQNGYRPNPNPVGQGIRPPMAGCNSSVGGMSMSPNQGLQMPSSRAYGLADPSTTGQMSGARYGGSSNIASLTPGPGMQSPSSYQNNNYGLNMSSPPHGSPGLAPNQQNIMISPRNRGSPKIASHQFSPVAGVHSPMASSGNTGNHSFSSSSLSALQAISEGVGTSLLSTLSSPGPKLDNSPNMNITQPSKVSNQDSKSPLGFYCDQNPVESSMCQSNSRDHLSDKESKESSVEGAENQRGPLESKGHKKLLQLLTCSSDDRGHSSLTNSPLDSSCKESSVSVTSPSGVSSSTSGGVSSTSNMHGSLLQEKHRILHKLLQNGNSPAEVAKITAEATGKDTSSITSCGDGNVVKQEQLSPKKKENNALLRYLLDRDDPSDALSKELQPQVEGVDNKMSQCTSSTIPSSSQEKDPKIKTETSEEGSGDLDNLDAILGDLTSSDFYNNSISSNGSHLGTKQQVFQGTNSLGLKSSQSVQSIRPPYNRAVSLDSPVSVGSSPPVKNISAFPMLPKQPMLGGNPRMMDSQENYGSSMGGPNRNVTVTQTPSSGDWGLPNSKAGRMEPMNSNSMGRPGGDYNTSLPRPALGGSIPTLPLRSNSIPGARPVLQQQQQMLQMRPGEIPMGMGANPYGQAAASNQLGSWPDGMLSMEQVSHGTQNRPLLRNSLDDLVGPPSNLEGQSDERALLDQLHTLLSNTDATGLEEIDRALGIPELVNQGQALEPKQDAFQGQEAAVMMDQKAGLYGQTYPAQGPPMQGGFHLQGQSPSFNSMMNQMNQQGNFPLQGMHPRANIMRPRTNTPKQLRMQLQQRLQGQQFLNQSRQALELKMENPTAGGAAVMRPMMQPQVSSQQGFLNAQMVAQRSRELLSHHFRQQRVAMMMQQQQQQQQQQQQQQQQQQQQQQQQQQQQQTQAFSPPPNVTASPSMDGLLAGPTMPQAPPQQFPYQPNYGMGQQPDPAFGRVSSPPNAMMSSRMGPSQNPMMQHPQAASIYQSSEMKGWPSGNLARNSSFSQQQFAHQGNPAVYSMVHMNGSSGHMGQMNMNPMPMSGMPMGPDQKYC

Bcl-2-related protein A1 = target: T5, Bcl-2-related protein A1 (Mus musculus, UniProt Q07440); type: functional;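 note: confirmatory dose–response counterscreen on Bfl-1, used to check hits from a UBC13 polyubiquitin inhibitor campaign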
T5 sequence (Q07440 whole entry): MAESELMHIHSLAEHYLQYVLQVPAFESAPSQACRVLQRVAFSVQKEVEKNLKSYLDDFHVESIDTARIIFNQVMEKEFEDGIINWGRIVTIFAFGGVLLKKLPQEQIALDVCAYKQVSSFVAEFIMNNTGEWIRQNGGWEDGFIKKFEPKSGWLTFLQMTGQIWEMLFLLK

[11] = target: T4, Ubiquitin-conjugating enzyme E2 N; type: functional; remark: listed apart in the source
[12] = growth suppression of beta-catenin-knockout colon cells, dose response, cell-based, HCT116, human colon tumor (AID 1045); type: functional;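 note: HCT116 colon tumor cells with beta catenin knocked out; cells exposed to compound for 60 hours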
[13] = HepG2 cell cytotoxicity, dose response, cytotoxicity control for non-replicating M. tuberculosis project (AID 489018); type: functional; conditions: Mycobacterium tuberculosis
[14] = Shn3 3'UTR reporter inhibitors, dose response, cell-based, Clone20 osteoblasts, firefly luciferase, cherry-picked (AID 624132); type: functional;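 note: firefly luciferase luminescence from reporter carrying the Shn3 3'UTR in osteoblasts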
INS1 = experiment: beta cell apoptosis inhibitors, cytokine rescue, dose response, luminescence, retest (AID 449756); type: functional, cell-based; conditions: Rattus norvegicus;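 note: cell death triggered by IL-1 beta plus TNF-alpha plus IFN-gamma mixture; protective hits raise ATP signal compared with cytokine alone wells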
Paired box protein Pax-8 = Paired box protein Pax-8 (Homo sapiens, UniProt Q06710); experiment: inhibitors of PAX8-driven TPO luciferase reporter, dose response, RMG-I cells, cherry-pick (AID 687027); type: functional, cell-based;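 note: luciferase reporter driven by Pax8 target thyroperoxidase promoter measured by SteadyGlo luminescence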
Paired box protein Pax-8, sequence (Q06710 whole entry): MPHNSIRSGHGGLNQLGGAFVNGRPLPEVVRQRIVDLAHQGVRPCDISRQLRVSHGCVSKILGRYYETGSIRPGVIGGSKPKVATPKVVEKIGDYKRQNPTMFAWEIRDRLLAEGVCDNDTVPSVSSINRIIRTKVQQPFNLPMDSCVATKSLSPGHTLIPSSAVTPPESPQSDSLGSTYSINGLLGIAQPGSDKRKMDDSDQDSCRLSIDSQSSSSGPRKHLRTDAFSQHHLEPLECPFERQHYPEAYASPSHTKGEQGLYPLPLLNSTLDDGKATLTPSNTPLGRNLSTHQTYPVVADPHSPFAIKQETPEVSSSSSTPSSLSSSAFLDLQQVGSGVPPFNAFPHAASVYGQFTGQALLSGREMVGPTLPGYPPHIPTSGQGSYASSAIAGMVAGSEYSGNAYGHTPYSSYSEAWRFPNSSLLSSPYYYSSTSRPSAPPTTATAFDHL

[15] = Vero E6 cell cytotoxicity, dose response, cytotoxicity control for non-replicating M. tuberculosis project, secondary assay (AID 492998); type: functional, VeroE6; conditions: Vero C1008
cells = type: functional
[16] = THP-1 cell cytotoxicity, dose response, cytotoxicity control for non-replicating M. tuberculosis project (AID 489025); type: functional
[17] = target: FAD-linked sulfhydryl oxidase ALR (Homo sapiens, UniProt P55789); experiment: inhibitors of human ALR sulfhydryl oxidase, dose response, biochemical, H2O2 detection, luminescence, cherry-pick (AID 493248)
FAD-linked sulfhydryl oxidase ALR, sequence (P55789 whole entry): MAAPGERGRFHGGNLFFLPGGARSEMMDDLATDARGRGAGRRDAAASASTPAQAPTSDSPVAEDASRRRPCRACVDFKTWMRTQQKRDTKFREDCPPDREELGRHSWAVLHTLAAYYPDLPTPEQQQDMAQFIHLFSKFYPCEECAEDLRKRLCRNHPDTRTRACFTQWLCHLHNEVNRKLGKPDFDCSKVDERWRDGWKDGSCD

[18] = control 3'UTR Renilla luciferase suppression, dose response, counter-screen for Shn3 inhibitor project, cell-based, Clone20-Shn3RL, cherry-picked (AID 624133); type: functional
[19] = HepG2 cell cytotoxicity, dose response, cytotoxicity control for Shn3 inhibitor project, CellTiter-Glo, cherry-picked (AID 624134); type: functional, cell-based
[20] = C. albicans growth with fluconazole, confirmation, fluorescence, retest (AID 2467); type: functional, cell-based
[21] = NIH-3T3 fibroblast cytotoxicity, dose response, cytotoxicity control, cell-based, fluorescence, Alamar Blue, secondary assay (AID 2327); type: functional;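 note: NIH-3T3 mouse fibroblasts cultured with fluconazole at 8 µg/mL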
[22] = target: T6, Microphthalmia-associated transcription factor (Homo sapiens, UniProt O75030); experiment: TRPM1 promoter luciferase signal decrease, dose response, MITF inhibitor project, cell-based, SK-MEL-5, cherry-picked, set 3 (AID 493073); type: functional
T6 sequence (O75030 whole entry): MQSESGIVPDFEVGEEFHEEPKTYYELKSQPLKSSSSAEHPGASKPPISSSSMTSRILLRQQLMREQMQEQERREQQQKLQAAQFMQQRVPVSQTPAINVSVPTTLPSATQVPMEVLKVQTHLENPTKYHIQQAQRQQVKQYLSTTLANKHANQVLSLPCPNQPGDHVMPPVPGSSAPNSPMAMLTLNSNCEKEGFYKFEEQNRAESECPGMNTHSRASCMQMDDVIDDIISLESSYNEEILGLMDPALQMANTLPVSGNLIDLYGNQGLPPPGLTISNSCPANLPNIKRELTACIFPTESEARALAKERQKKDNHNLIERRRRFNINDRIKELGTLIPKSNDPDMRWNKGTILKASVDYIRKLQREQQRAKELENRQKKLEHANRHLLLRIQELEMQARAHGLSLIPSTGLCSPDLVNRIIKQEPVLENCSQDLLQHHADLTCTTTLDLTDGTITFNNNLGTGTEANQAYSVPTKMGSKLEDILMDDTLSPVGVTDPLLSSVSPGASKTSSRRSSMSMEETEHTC

A-375 = experiment: A375 melanoma cell viability reduction, dose response, counter-screen for MITF modulator project, cherry-pick samples, set 2 (AID 540335); type: functional, cell-based; conditions: Homo sapiens
[23] = growth suppression of PTEN-null colon cells, dose response, cell-based, HCT116 PTEN knockout (AID 1047); type: functional;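 note: HCT116 colon tumor cells with PTEN knocked out; cells exposed to compound for 60 hours before readout; potency for loss of cell viability measured by luminescence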

In the case of `CN(C)S(=O)(=O)c1cccc(NC(=S)NNC(=O)c2cc3ccccc3cc2O)c1`, the AC50 [1] is reported as 77.8 µM (active), the EC50 [2] is reported as 12.5 µM (active) and the EC50 [3] is reported as 16.1 µM (active). The IC50 [4] was 34.2 µM (active) and the EC50 [5] was 8.74 µM (active).
With `CCN1CCN(C(=O)CSc2cc(=O)n(CC)c3ccccc23)CC1` the IC50 [6] was > 80 µM (inactive), the EC50 [7] was > 79.4 µM (not active) and the EC50 [8] was > 79.4 µM (inactive). The IC50 [9] was > 20 µM (inactive) and the EC50 [10] was > 79.4 µM (not active).
For `CC(C)(C)OC(=O)N1CCC(NC(=O)c2[nH]cnc2C(=O)Nc2ccon2)CC1`, the EC50 [2] was 13.9 µM (active), the EC50 [3] was 13.3 µM (active) and the IC50 [4] was 47.2 µM (active). The EC50 [5] was 10.1 µM (active).
With `O=C(CCCn1c(=O)c2ccccc2n(Cc2cccc(F)c2)c1=O)NC1CCN(Cc2ccccc2)CC1` the IC50 (Bcl-2-related protein A1) was > 20 µM (inactive), the IC50 [9] was 2.11 µM (active) and the IC50 [11] was 1.31 µM (active).
For `O=C(c1ccccc1)C(CN1CCCC1)c1ccccc1` (stereo not drawn), the EC50 [12] was 1.88 µM (active), the CC50 [13] was 14.7 µM (active) and the AC50 [14] was 10.7 µM (active). The AC50 (INS1) was 4.07 µM (active), the AC50 (Paired box protein Pax-8) was 4.88 µM (active) and the CC50 [15] was 9.26 µM (active). For the same molecule, the IC50 (cells) was 8.41 µM (active), the CC50 [16] was 9.86 µM (active) and the AC50 [17] was 3.73 µM (active). The AC50 [18] was 6.34 µM (active), the AC50 [19] was 17.4 µM (active) and the EC50 [20] was 0.292 µM (active). For the same molecule, the EC50 [21] was > 160 µM (inactive), the AC50 [22] was 5.33 µM (active) and the AC50 (A-375) was 25.2 µM (active). The EC50 [23] was 2.82 µM (active).
